Measurements published in article PMC10816046, “The Interaction and Effect of a Small MitoBlock Library as Inhibitor of ALR Protein–Protein Interaction Pathway” (International Journal of Molecular Sciences, 2024).

How the values were obtained:
[1] = molecular target: T1, ALR (SF-ALR) (Homo sapiens, UniProt P55789); experiment: 1H-15N HSQC NMR titration of […] SF-ALR (slow exchange); IC50 from Amplex Red-HRP assay with pure enzyme; assay type: biochemical
T1 construct: gene GFER; SF-ALR, residues 81–205
T1 sequence (P55789 81-205): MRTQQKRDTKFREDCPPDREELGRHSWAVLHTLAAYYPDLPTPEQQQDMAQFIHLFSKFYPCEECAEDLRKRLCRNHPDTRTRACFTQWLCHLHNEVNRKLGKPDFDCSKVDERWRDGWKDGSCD

[2] = molecular target: T1, ALR (SF-ALR); experiment: 1H-15N HSQC NMR titration (slow exchange); assay type: binding

SMILES | IC50 [1] [µM] | 1H-15N HSQC NMR titration (slow exchange) [2]
Nc1ccc(N2CCN(C(=O)c3ccco3)CC2)cc1 [MB-13] | 10.7 | 
CC(=O)Nc1cccc(-c2csc(Nc3ccc(C)cn3)n2)c1 [MB-8] | 9.02 | 
CN(c1ccc(C2=NN=C(NC3CC3)SC2)cc1)S(C)(=O)=O [MB-7] |  | perturbation on the HN signals in the 2D NMR spectra (ES-1, MB-5, MB-7, MB-8, and MB-13)
